# Entries after “also recorded” stand apart in the source; their conditions may differ.
# Assays:
# [1] = test system: BET BD1 and BD2 bromodomains; conditions: SPR; cited from earlier work
# [2] = test system: H3K122Ac (HAT activity of BRD4); test: immunofluorescence staining of H3K122Ac in lung sections of mice; conditions: n = 5
# [3] = test system: IL-6; test: poly; conditions: for activity at 10 µM: Homo sapiens, read-out: Residual activity rate, IL-6 (%)
# [4] = test system: CIG5; test: poly; conditions: Homo sapiens, read-out: Residual activity rate, CIG5 (%)
# [5] = test system: poly(I:C)-induced BRD4-dependent acute airway inflammation; test: murine model of poly; assay type: in vivo, C57BL/6J mice; conditions: mice, 10 mg/kg po
# [6] = in vivo PK profiles in rats; conditions: rat
# [7] = target: BRD4 BD1 E151A mutant (Homo sapiens, UniProt O60885, E151A); test: thermal shift assay; conditions: TSA, 5 μM protein
# [8] = test system: H3K122Ac (HAT activity of BRD4); test: immunofluorescence staining of H3K122Ac in hSAECs; assay type: cell-based, human
# [9] = test system: HIV; conditions: cited from earlier work
# [10] = cited from earlier work
# [11] = in vivo; cited from earlier work
structure (smiles),measurement,setting,value
CC(=O)Nc1c(F)cc(C(=O)N[C@H]2CC[C@H](O)CC2)cc1O[C@@H](C)c1ccccc1 [GSK046],selectivity BET BD2 over BD1,[1],> 300 fold
"O=C(Nc1ccc(C(F)(F)F)cc1)Nc1ccc(S(=O)(=O)N2CCC[C@H]2CN2CCOCC2)cc1 [Compound 52, (S)-1-(4-((2-(Morpholinomethyl)pyrrolidin-1-yl)sulfonyl)phenyl)-3-(4-(trifluoromethyl)phenyl)urea]",poly(I:C)-induced H3K122Ac accumulation in lung tissue of mice,[2],significantly blocked
same,activity at 10 µM,[3],0.35 ± 0.03%
same,activity at 10 µM,[4],0.34 ± 0.025%
same,"poly(I:C)-induced BRD4-dependent acute airway inflammation, overall",[5],more efficacious
same,poly(I:C)-induced neutrophilic inflammation around small- and medium-sized airways (histology),[5],completely inhibited
same,"inflammatory cytokines (IL-6, KC, MCP-1, RANTES) in BALF","[5]; n = 5, 10 mg/kg",significantly attenuated; also recorded: blocked
same,"inflammatory gene expression (IL-6, KC, ISG54, CIG5) in lung tissues","[5]; n = 5, 10 mg/kg",significantly attenuated; also recorded: blocked
same,total cells and neutrophils in BALF,"[5]; n = 5, 10 mg/kg",significantly attenuated; also recorded: blocked
same,improvement of oral bioavailability compared to compound 7,[6],approximately 30 fold
same,binding to E151A mutant of BRD4 BD1 compared with WT,[7],complete loss of its binding affinity
same,poly(I:C)-induced H3K122Ac accumulation in hSAECs,[8],significantly blocked
"O=C(Nc1ccc(C(F)(F)F)cc1)Nc1ccc(S(=O)(=O)N2CCC[C@H]2C(=O)Nc2ccccc2)cc1 [Compound 45, (S)-N-Phenyl-1-((4-(3-(4-(trifluoromethyl)phenyl)ureido)phenyl)-sulfonyl)pyrrolidine-2-carboxamide]",effect on HIV,[9],epigenetically suppress HIV
"Cc1sc2c(c1C)C(c1ccc(Cl)cc1)=N[C@@H](CC(=O)OC(C)(C)C)c1nnc(C)n1-2 [Compound 3, reference compound]",poly(I:C)-induced H3K122Ac accumulation in lung tissue of mice,[2],blocked
same,effect on latent HIV,[9],activate latent HIV
same,binding to E151A mutant of BRD4 BD1 compared with WT,[7],maintained a similar binding activity
same,poly(I:C)-induced H3K122Ac accumulation in hSAECs,[8],blocked
Cc1cc(/N=N/c2ccc(S(=O)(=O)NC3CCCC3)cc2)c(N)cc1O [Compound 7],oral bioavailability,[10],0.5%
same,AUC0–t,[10]; oral dose of 20 mg/kg,104 ng·h/mL
same,Cmax,[10]; oral dose of 20 mg/kg,36 ng/mL
"O=C(Nc1ccc(C(F)(F)F)cc1)Nc1ccc(S(=O)(=O)N2CCC[C@H]2CO)cc1 [Compound 50, (S)-1-(4-((2-(Hydroxymethyl)pyrrolidin-1-yl)sulfonyl)phenyl)-3-(4 (trifluoromethyl)phenyl)urea]",activity at 10 µM,[3],1.71 ± 0.13%
"O=C(Nc1ccc(C(F)(F)F)cc1)Nc1ccc(S(=O)(=O)N2CCC[C@H]2CN2CCC(O)CC2)cc1 [Compound 53, (S)-1-(4-((2-((4-Hydroxypiperidin-1-yl)methyl)pyrrolidin-1-yl)-sulfonyl)phenyl)-3-(4-(trifluoromethyl)phenyl)urea]",poly(I:C)-induced H3K122Ac accumulation in lung tissue of mice,[2],significantly blocked
same,"fold more potent than compound 1, IL-6",[3]; ratio of IC50 values,15.9 fold
same,"fold more potent than compound 3, IL-6",[3]; ratio of IC50 values,4.8 fold
same,poly(I:C)-induced H3K122Ac accumulation in hSAECs,[8],significantly blocked
COCc1nc2cnc3cc(-c4c(C)noc4C)c(OC[C@H]4CCNC4)cc3c2n1[C@H](C)c1ccccc1 [GSK778],selectivity BET BD1 over BD2,[1],> 130 fold
"COc1cc(OC)c2c(=O)cc(-c3cc(C)c(OC[C@H](O)CN4CCN(C)CC4)c(C)c3)oc2c1 [ZL0516, (R)-2-(4-(2-hydroxy-3-(4-methylpiperazin-1-yl)propoxy)-3,5-dimethylphenyl)-5,7-di-methoxy-4H-chromen-4-one]",oral bioavailability F,[11],35%
